Results published in patent US7700741B2, “High affinity anti-N1,N12-diacetylspermine monoclonal antibody” (Trans Genic Inc., priority 2005, dated 2010).

Tests used:
[1] = tested on: anti-DiAcSpm monoclonal antibody CN647; assay: Crossreactivity test on cloned wells (culture supernatant of CN647 strain); assay type: binding, mouse; conditions: all three cloned wells, one designated CN647; FIG. 3
Description: Briefly, cells were diluted with 20% FCS-containing RPMI medium to a density of 2.5 cells/ml and added to two 96-well culture plates at 200 μl/well. After five days, single colonies were examined. As a result, a single colony was confirmed in 17 wells out of the two 96-well plates. After 10 days, antibody titers to DiAcSpm were measured in culture supernatants by the method described in Experimental Example 2. Three wells were positive. Cells in these three wells were cultured further and tested for crossreactivities with AcSpm, N^1-AcSpd, N^8-AcSpd, DiAcSpd and AcPut by the method described in Experimental Example 3. […] Thus, antibodies sufficient to achieve the object have been obtained (FIG. 3). One of them was designated “established clone CN647”.
Antibody titers in diluted culture supernatants were measured by the method described in Experimental Example 2. Based on the results, the dilution rate with which the absorbance at 492 nm becomes 1 was selected. To each well of dilution plates, 70 μl of culture supernatant diluted at the dilution rate selected above and 70 μl of DiAcSpm solution with serially varied concentration or a structure analog of DiAcSpm (N^1-AcSpm, N^1-AcSpd, DiAcSpd, or the like) with serially varied concentration were mixed and added, and then left at 25° C. for 1 hour for pre-reaction. Subsequently, to each well of freeze-dried plates prepared in the same manner as in Experimental Example 1, 300 μl of BST was added, left at 25° C. for 30 minutes and re-washed with BST once. To the resultant plates, the pre-reacted reaction solution was added at 50 μl/well and left at 25° C. for 1 hour. Then, after washing with PBST three times, 50 μl of 80-fold dilution of HRP-labeled anti-mouse IgG antibody (KPL) was added to each well and left at 25° C. for 1 hour. […] Then, absorbances at 492 nm were measured with an ELISA reader.

[2] = molecular target: anti-DiAcSpm monoclonal antibody; assay: Kit competitive ELISA with solid-phased AcSpm-HMC-peptide, crossreactivities of structure analogs; assay type: binding, mouse; conditions: for KiDiAcSpm/Ki"S" (%) . . . (1): 15 ng/ml antibody, 0.07 μg/ml solid-phased antigen; for Crossreactivity (1) × (2) (%): crossreactivity in urine, Ki ratio × urinary ratio
Description: As a measuring kit, competitive ELISA using a solid-phased antigen AcSpm-HMC-peptide was performed based on known methods (Hiramatsu, K. et al., J. Biochem., 124, 231-236 (1998)). As the primary antibody, the monoclonal antibody prepared in Example 1 was used. As the secondary antibody, a commercial, goat-derived HRP-labeled anti-mouse IgG antibody (KPL) was used. The concentration of the solid-phased antigen was set at 0.07 μg/ml based on the concentration employed in a kit using anti-DiAcSpm polyclonal antibody. With respect to the concentration of anti-DiAcSpm monoclonal antibody to be used, 15 ng/ml was selected so that 40% of the maximum reaction efficiency (the point at which the absorbance at 492 nm becomes 1) is achieved when the concentration of the solid-phased antigen AcSpm-HMC-peptide is 0.07 μg/ml (FIG. 4). The dilution ratio of the goat-derived HRP-labeled anti-mouse IgG antibody was set at 2,500-fold from experience.
First, under the conditions established in (1) above, crossreactivities of structure analogs of DiAcSpm with DiAcSpm in urine samples were examined. Briefly, the 50% inhibition activity concentrations of DiAcSpm, N^1-AcSpm, DiAcSpd, N^1-AcSpd, N^8-AcSpd and DiAcPut in the kit were examined, and the crossreactivities of other structure analogs with DiAcSpm in urine were calculated. As a result, crossreactivity with N^1-AcSpd (whose crossreactivity is most apprehended) was 1.62%; crossreactivity with AcSpm was 0.54%; crossreactivity with DiAcSpd was 0.002%; crossreactivity with N^8-AcSpd was 0.01%; crossreactivity with AcPut was 0.01%; and the total crossreactivity was 2.17% (Table 2).

[3] = tested on: monoclonal antibodies to DiAcSpm (Fujiwara et al., Japanese Unexamined Patent Publication No. H11-75839); conditions: prior-art monoclonal antibodies; cited from earlier work
[4] = tested on: monoclonal antibodies to DiAcSpm (Fujiwara et al., Japanese Unexamined Patent Publication No. H11-75839); assay: Prior-art 50% binding inhibition of immunoreaction (Fujiwara et al. antibodies); conditions: crossreactivity with DiAcSpm taken as 100; N^1-AcSpd about 25 times DiAcSpm in urine
From the text: Recently, Fujiwara et al. prepared monoclonal antibodies to DiAcSpm (Japanese Unexamined Patent Publication No. H11-75839). With these antibodies, 50% binding inhibition activity against immunoreaction with DiAcSpm is only about 100 times as much as 50% binding inhibition activity against immunoreaction with N^1-acetylspermidine (hereinafter expressed as “N^1-AcSpd”) and is only about 20 times as much as 50% binding inhibition activity against immunoreaction with N^1-acetylspermine (hereinafter expressed as “N^1-AcSpm”) which is a monoacetylated form of spermine. Since the amount of N^1-AcSpd in the urine of healthy persons is about 25 times as much as the amount of DiAcSpm therein, the crossreactivity of the above antibody with N^1-AcSpd in the urine of healthy persons is 25 when the crossreactivity of the antibody with DiAcSpm therein is taken as 100. Therefore, the antibody may yield false-positive results. Accordingly, in order to enhance the measuring sensitivity for DiAcSpm, a DiAcSpm-specific monoclonal antibody whose crossreactivities with N^1-AcSpd and N^8-acetylspermidine (hereinafter expressed as “N^8-AcSpd”) are still lower is required.

[5] = tested on: anti-DiAcSpm antibodies in culture supernatants of DiAcSpm positive clones; assay: Crossreactivity test on antibody production positive clones (culture supernatant, competitive ELISA); assay type: binding, mouse
From the text: Out the DiAcSpm positive clones obtained above, 51 clones with relatively high antibody titers were selected and tested for crossreactivity with N^1-AcSpd (which is present in urine abundantly and believed to cross-react relatively easy from the results of researches made so far) by the method described later in Experimental Example 3. As a result, with respect to two wells, the 50% reaction inhibition activity of N^1-AcSpd was about 800 times as much as that of DiAcSpm; with respect to one well, the 50% reaction inhibition activity of N^1-AcSpd was 3,000 times as much as that of DiAcSpm; and with respect to the other wells, the 50% reaction inhibition activity of N^1-AcSpd was 0-200 times as much as that of DiAcSpm.
Antibody titers in diluted culture supernatants were measured by the method described in Experimental Example 2. Based on the results, the dilution rate with which the absorbance at 492 nm becomes 1 was selected. To each well of dilution plates, 70 μl of culture supernatant diluted at the dilution rate selected above and 70 μl of DiAcSpm solution with serially varied concentration or a structure analog of DiAcSpm (N^1-AcSpm, N^1-AcSpd, DiAcSpd, or the like) with serially varied concentration were mixed and added, and then left at 25° C. for 1 hour for pre-reaction. Subsequently, to each well of freeze-dried plates prepared in the same manner as in Experimental Example 1, 300 μl of BST was added, left at 25° C. for 30 minutes and re-washed with BST once. To the resultant plates, the pre-reacted reaction solution was added at 50 μl/well and left at 25° C. for 1 hour. Then, after washing with PBST three times, 50 μl of 80-fold dilution of HRP-labeled anti-mouse IgG antibody (KPL) was added to each well and left at 25° C. for 1 hour. Subsequently, after washing with PBST three times, 100 μl of o-phenylenediamine solution diluted with 0.012% hydrogen peroxide-containing 0.1 M citrate phosphate buffer (pH 5.0) to 0.5 mg/ml was added to each well and left at 25° C. for 9 minutes. Then, absorbances at 492 nm were measured with an ELISA reader.

[6] = tested on: anti-DiAcSpm polyclonal antibody; assay: Evaluation of immunizing antigen lots (inhibition of polyclonal antibody reaction with solid-phased antigen); assay type: binding, rabbit; conditions: six lots compared; absorbance at 492 nm; FIG. 1
Description: The antigen was evaluated using DiAcSpm specific polyclonal antibody. Six lots of the antigen prepared in (1) above were examined on their activities to inhibit the reaction of anti-DiAcSpm polyclonal antibody with solid-phased AcSpm-HMC-AcSpm, by the method described later in Experimental Example 1.
AcSpm-HMC-peptide diluted with PBS (pH 7.0) to 0.07 μg/ml was added to 96-well microtiter plates at 50 μl/well as an antigen to be solid-phased, and left at 25° C. for 1.5 hours. Subsequently, the plates were washed with 0.05% Tween20-containing PBS (pH 7.0) (PBST) three times. Then, 0.5% gelatin-containing PBST (blocking solution) was added thereto at 200 μl/well and left at 25° C. for 1 hour. The plates were frozen at −30° C. overnight to freeze the blocking solution for freeze-drying to thereby prepare freeze-dried plates. To each well of dilution plates, 70 μl of 10 μg/ml anti-DiAcSpm polyclonal antibody and 70 μl of each lot of the immunizing antigen AcSpm-GMB-AMS-BSA with serially varied concentration were mixed and added, and left at 25° C. for 1 hour for pre-reaction. Subsequently, to each well of the freeze-dried plates prepared in Experimental Example 1, 300 μl of PBST was added, left at 25° C. for 30 minutes and then re-washed with PBST once. To each well of these plates, 50 μl of the pre-reacted reaction solution was added and left at 25° C. for 1 hour. Then, after washing with PBST three times, 50 μl of 80-fold dilution of HRP-labeled anti-rabbit IgG antibody (Bio-Rad) was added to each well and left at 25° C. for 1 hour. Subsequently, after washing with PBST three times, 100 μl of o-phenylenediamine solution diluted with 0.012% hydrogen peroxide-containing 0.1 M citrate phosphate buffer (pH 5.0) to 0.5 mg/ml was added to each well and left at 25° C. for 9 minutes. Then, absorbances at 492 nm were measured with an ELISA reader.

CC(=O)NCCCNCCCCN [N1-AcSpd, N^1-acetylspermidine]
50% inhibition activity of DiAcSpm relative to that of the analog [1]: about 1,000 times | KiDiAcSpm/Ki"S" (%) . . . (1) [2]: 0.0610% | Crossreactivity (1) × (2) (%) [2]: 1.62% | 50% binding inhibition activity against immunoreaction with DiAcSpm relative to that with the analog [3]: about 100 times | crossreactivity of the antibody with the analog in the urine of healthy persons [4]: 25 | 50% reaction inhibition activity of N^1-AcSpd relative to that of DiAcSpm ([5]; one well of 51 selected clones): 3,000 times | 50% reaction inhibition activity of N^1-AcSpd relative to that of DiAcSpm ([5]; the other wells of 51 selected clones): 0-200 times | 50% reaction inhibition activity of N^1-AcSpd relative to that of DiAcSpm ([5]; two wells of 51 selected clones): about 800 times

CC(=O)NCCCCN [AcPut]
KiDiAcSpm/Ki"S" (%) . . . (1) [2]: 0.0001% | Crossreactivity (1) × (2) (%) [2]: 0.01%

CC(=O)NCCCCNCCCN [N8-AcSpd, N^8-acetylspermidine]
KiDiAcSpm/Ki"S" (%) . . . (1) [2]: 0.0003% | Crossreactivity (1) × (2) (%) [2]: 0.01%

CC(=O)NCCCNCCCCNCCCN [AcSpm, N^1-acetylspermine]
50% inhibition activity of DiAcSpm relative to that of the analog [1]: about 70 times | KiDiAcSpm/Ki"S" (%) . . . (1) [2]: 1.7072% | Crossreactivity (1) × (2) (%) [2]: 0.54% | 50% binding inhibition activity against immunoreaction with DiAcSpm relative to that with the analog [3]: about 20 times

CC(=O)NCCCCNCCCNC(C)=O [DiAcSpd, N^1,N^8-diacetylspermidine]
KiDiAcSpm/Ki"S" (%) . . . (1) [2]: 0.0008% | Crossreactivity (1) × (2) (%) [2]: 0.002%

AcSpm-GMB-AMS-BSA [lot No. 6]
activity to inhibit the reaction of anti-DiAcSpm polyclonal antibody with solid-phased antigen [6]: highest inhibition activity

AcSpm-GMB-AMS-BSA [lot No. 5]
activity to inhibit the reaction of anti-DiAcSpm polyclonal antibody with solid-phased antigen [6]: comes next

CC(=O)NCCCNCCCCNCCCNC(C)=O [DiAcSpm, N^1,N^12-diacetylspermine]
50% inhibition activity of DiAcSpm relative to that of the analog [1]: about 100,000 times | KiDiAcSpm/Ki"S" (%) . . . (1) [2]: 100% | Crossreactivity (1) × (2) (%) [2]: 100%

AcSpm-GMB-AMS-BSA [lot No. 1]
activity to inhibit the reaction of anti-DiAcSpm polyclonal antibody with solid-phased antigen [6]: highest inhibition activity
